The results in this text go back to patent US20030119066A1, “Diagnostic kit for detecting immunogenic response and method of screening” (Novozymes A/S, priority 2001, published 2003).

Assay [1] deals with anti-Savinase® antibody. Put plainly: ELISA of antibody binding capacity of immobilized peptides with sera raised against different proteins. The arrangement: species or system rabbits, rats, and mice. The conditions noted are these: biotin-linked peptide on streptavidin plates, sera raised against Alcalase, Subtilisin Novo, Carezyme, Laccase, Natalase, SP722, Lipolase (FIG. 1). The protocol: The antibody binding capacity of the two linear peptide sequences, RRFANDHTR (light gray bars) and RRFSNATRA (dark gray bars), were tested in an ELISA assay, by measuring optical density, OD. The sequences were tested for binding to antibodies in sera raised against different proteins. The different proteins are marked by capital letters A through H. A=Alcalase®, B=Savinase®, C=Subtilisin Novo®), D=Carezyme®) (cellulase), E=Laccase, F=Natalase® (amylase), G=SP722 (amylase), H=Lipolase® (lipase).
Specific IgG and IgE levels were determined using the ELISA specific for human, mouse or rat IgG or IgE. Differences between data sets were analysed by using appropriate statistical methods. The assays were performed as known to the expert.
The following sequences were synthezised, and immobilized on biotin, through a linker molecule:
The biotin-complex was immobilized in ELISA well plates, pre-coated with streptavidin. If phages were used, these were directly coated into the ELISA plate wells. ELISA was performed as described elsewhere, on sera from rabbits, rats, and mice raised against Alcalase®, Savinase®, and Subtilisin Novo® as well as a number of less relevant proteins.
In FIG. 1 the reactivity of the selected peptides in terms of antibody binding capacity is shown (ELISA assay). […]
(In general: ELISA stands for enzyme-linked immunosorbent assay.)

For assay [2], the system named is specific antibodies. The assay is described as follows: Phage display library screening for clones binding specific antibodies. Particulars: random hexa-, nona- or dodeca peptide phage display library. The source says: In a particular method, the identification of antibody binding sequences may be achieved by screening a display package library, particularly a phage display library. The principle behind phage display is that a heterologous DNA sequence can be inserted in the gene coding for a coat protein of the phage (WO 92/15679). The phage will make and display the hybrid protein on its surface where it can interact with specific target agents. Such target agent may be antigen-specific antibodies. It is therefore possible to select specific phages that display antibody-binding peptide sequences. […] Thus, by screening for antibody binding, one can isolate the peptide sequences that have sufficiently high affinity for the particular antibody used. The peptides of the hybrid proteins of the specific phages which bind protein-specific antibodies characterize epitopes that are recognized by the immune system.
From a phage display library expressing random hexa-, nona- or dodeca peptides as part of their membrane proteins, specific phage clones were isolated capable of binding specific antibodies. […] The amino acid sequence of the corresponding oligopeptide was deduced from the DNA sequence.

On to R R F A N D H T R (RRFANDHTR), for which the “reactivity (antibody binding capacity, optical density, OD)” value in assay [1] was “Reactivity was observed with anti-Savinase® antibody only”.

On to R R F S N A T R A (RRFSNATRA), for which the “reactivity (antibody binding capacity, optical density, OD)” value in assay [1] is given as “Reactivity was observed with anti-Savinase® antibody only”.

Regarding VQVYGDTSA, the “antibody binding of phage-displayed peptide” value in assay [2] is listed as “specific antibody binding peptide”.
